Experimental data from patent publication EP0278501A2, “Nucleotide analogs, their production and use” (Takeda Chemical Industries, Ltd., priority 1987, dated 1988).
Values after ≈ are worked out from the molar mass of the structure shown. Blank lines part the entries; values can stand above or below the molecule they belong to.

Key:
[1] = test system: Herpes Simplex Virus Type 1, HF Strainn; test: Inhibition of viral cytopathogenic effect in infected Vero cells; format: cell-based
Description: Inhibitory Effect of Antiviral Compounds against Herpes Simplex Virus Type 1, HF Strainn
Vero cells were infected with 100 TCIDso(50% tissue-culture infected doses) of viruses and cultured with various concentrations of the compounds.

[2] = Cytotoxicity in non-infected control culture (visible disruption of normal cell morphology); format: cell-based; details: monkey, vero cells; minimum concentration to cause a visible disruption of normal cell morphology; non-infected Vero control culture, three days; read-out: Cytotoxicity^b)
[3] = test system: cyclic AMP phosphodiesterase originated from a cow brain; test: Reaction with cyclic AMP phosphodiesterase; format: biochemical; details: enzyme originated from a cow brain
Vero cells = test: Cytotoxicity in non-infected control culture (visible disruption of normal cell morphology); format: cell-based; details: minimum concentration to cause a visible disruption of normal cell morphology; non-infected Vero control culture, three days; 4320 min

EC50 ([1]; Human alphaherpesvirus 1, 72 h; concentration required to reduce the viral cytopathogenic effect by 50%; Vero cells infected with 100 TCID50; observed three days after the infection; read-out: ID50^a)): 0.2 µg/mL (≈ 0.579 µM)
Molecule: Nc1nc2c(ncn2[C@@H]2C[C@H](COP(=O)(O)O)[C@@H](O)C2)c(=O)[nH]1 [Carbocyclic•2'-deoxyguanosine-6'-monophosphate]
MCC at 72 h [2]: 50 µg/mL

Molecule: 2'-Deoxyaristeromycin-3',6'-cyclic phosphate [Example 1]
conversion by cyclic AMP phosphodiesterase [3]: changed to 2'-deoxyaristeromycin-mono phosphate

Molecule: Carbocyclic•2'-deoxyguanosine 6'-triphosphate
ID50^a) ([1]; concentration required to reduce the viral cytopathogenic effect by 50%, Vero cells infected with 100 TCID50, observed three days after the infection, 4320 min): 0.4 µg/mL
Cytotoxicity^b) (Vero cells): 50 µg/mL
